Entries after “also recorded” stand apart in the source; their conditions may differ.
Tests used:
[1] = tested on: subjects with remission phase Type I diabetes; experiment: Sustacal meal with intravenous GLIP infusion (Example 1); assay type: in vivo, human
Protocol: 7 subjects with remission phase Type I diabetes were studied after ingestion of a standardised meal of Sustacal (Upjohn) (delivering […]). Subjects continued their normal insulin treatment programme on the day prior to the test and, on the day of the test, omitted their morning insulin injection and arrived fasting at 8:00 am. […] Infusion was continued for 120 minutes. Blood levels of glucose, C-peptide, gastrin, glucagon and HPP were monitored by standard radioimmunoassay methods in samples taken before and at intervals during the study, up to 180 minutes. On another test day, subjects were given the Sustacal meal alone and the same analytes were similarly monitored.

[2] = tested on: subjects with remission phase Type I diabetes; experiment: Sustacal meal with lower-dose GLIP infusion (Example 3); assay type: in vivo, human; details: infusion 0.75 pmol/kg/min for 120 minutes after Sustacal meal, versus saline infusion; FIG. 3
Protocol: Four subjects with remission phase Type I diabetes were studied during infusion with 0.75 pm/kg/min-GLIP for 120 minutes after a Sustacal meal.
The test was conducted as described in Example 1 and blood glucose and C-peptice levels were measured. On a further test day, the subjects were studied during saline infusion after a similar Slistacal meal.

normal volunteers = experiment: Sustacal meal preceded by subcutaneous GLIP in normal volunteers (Example 4); assay type: in vivo, human
From the text: Results are shown in FIG. 4. *indicates statistically significant differences between treatments (p<0.05).

Type I diabetic subjects = experiment: Sustacal meal preceded by subcutaneous GLIP in Type I diabetics (Example 5); assay type: in vivo, human; details: 100 μg GLIP subcutaneously prior to Sustacal meal
From the text: Type I diabetic subjects were studied.
The results are shown in FIG. 5. indicates statistically significant differences between treatments (p<0.05).

humans and other mammals = details: cited from earlier work
Type II diabetics = details: cited from earlier work
Type 1 diabetic subject = experiment: Subcutaneous GLIP along with insulin before Sustacal meal (Example 6)
Protocol: One Type 1 diabetic subject was given GLIP along with insulin and the effects on post-prandial glycaemia observed. The subject received 5 units of insulin and 50 μg GLIP as subcutaneous injections immediately prior to ingestion of a Sustacal meal as described in Example 1. Blood levels of GLIP were monitored by a standard radioimmunoassay method.

[3] = subcutaneous injection of 00 gg GLIP immediately before Sustacal meal

## Glucagon-like peptide 1(7-36)amide [GLIP]
[1]; IV infusion 1.2 pm/kg/min after Sustacal meal, FIG. 1 Panel E
  gastrin response / gastrin levels: normal ga.trin response; also recorded: not significantly affected
[1]; IV infusion 1.2 pm/kg/min for 120 minutes after Sustacal meal, FIG. 1 Panel A
  blood glucose level after a meal: excellent control of blood glucose level
[1]; IV infusion 1.2 pm/kg/min, FIG. 1 Panel C
  secretion of pancreatic polypeptide (PP) after Sustacal meal: this response was absent during GLIP infusion
[2]
  increase in blood glucose: increase in glucose was less than in the control experiment
  rise in C-peptide: rise in C-peptide was similar to the control experiment
Normal volunteers; experiment repeated with 50 Ag dose of GLIP
  delays in increase in blood levels of glucose, HPP, C-peptide and insulin: proportionally shorter
Normal volunteers; experiment repeated with 200 Ag dose of GLIP
  delays in increase in blood levels of glucose, HPP, C-peptide and insulin: longer
Normal volunteers; [3]
  increase in blood levels of C-peptide: delay in increase
  increase in blood levels of HPP: delay in increase
  increase in blood levels of glucose: delay in increase
  increase in blood levels of insulin: delay in increase
Type I diabetic subjects; morning insulin omitted, FIG. 5 Panel A
  blood glucose levels compared to control (no GLIP): lowering of blood glucose levels
Type I diabetic subjects; FIG. 5 Panel D
  pancreatic polypeptide (HPP) levels: delayed rise in pancreatic polypeptide (HPP) levels
Type I diabetic subjects; FIG. 5 Panels B and C
  insulin secretion over control levels: no enhancement of insulin secretion over control levels
Humans and other mammals
  gastric emptying: delay of gastric emptying
Type II diabetics
  effect between the peptide and oral hypoglycaemic agents: synergistic effect
Type 1 diabetic subject; 50 μg GLIP subcutaneously with 5 units insulin, radioimmunoassay, FIG. 6 Panel E
  clearance of GLIP from the blood: cleared from the blood in about two hours
Type 1 diabetic subject; 50 gg GLIP with 5 units insulin (half the usual dose) subcutaneously before Sustacal meal, one subject, FIG. 6 Panel A
  blood glucose after standard meal: ≤ 8 mM

Reference: patent US20020119146A1, “TREATMENT OF DIABETES” (priority 1994, published 2002)
